# Experimental data reported in PubChem BioAssay AID1963445 (Molecular Pharmacology Branch, DTP, NCI, 2024).
# Test system: MCF7 complex spheroid growth, % test/control
# Test: Anticancer human tumor MCF7 cell line growth inhibition [Asc];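 also: spheroids exposed to compounds for 7 days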;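 as to viability, T/C: 100% = DMSO vehicle control wells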
# Details: for IC50: curve of first compound; for viability, T/C: stronger effect = lower value
# Summary of the method: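 Stromal components (HUVEC and hMSC) are co-assembled with the cancer cells into multicellular spheroids. Drugs are then added singly or paired, at concentrations falling by half-log increments from a clinically achievable maximum, capped at 10 microM without known Cmax.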
# [1] = second compound 0.0316 µM, first compound 0.000949 µM
# [2] = second compound 0.0316 µM, first compound 0.003 µM
# [3] = second compound 0.0316 µM, first compound 0.00949 µM
# [4] = second compound 0.0316 µM, first compound 0.03 µM
# [5] = second compound 0.0316 µM, first compound 0.0949 µM
# [6] = second compound 0.0316 µM, first compound 0.3 µM
# [7] = second compound 0.1 µM, first compound 0.000949 µM
# [8] = second compound 0.1 µM, first compound 0.003 µM
# [9] = second compound 0.1 µM, first compound 0.00949 µM
# [10] = second compound 0.1 µM, first compound 0.03 µM
# [11] = second compound 0.1 µM, first compound 0.0949 µM
# [12] = second compound 0.1 µM, first compound 0.3 µM
# [13] = second compound 0.316 µM, first compound 0.000949 µM
# [14] = second compound 0.316 µM, first compound 0.003 µM
# [15] = second compound 0.316 µM, first compound 0.00949 µM
# [16] = second compound 0.316 µM, first compound 0.03 µM
# [17] = second compound 0.316 µM, first compound 0.0949 µM
# [18] = second compound 0.316 µM, first compound 0.3 µM
# [19] = second compound 1 µM, first compound 0.000949 µM
# [20] = second compound 1 µM, first compound 0.003 µM
# [21] = second compound 1 µM, first compound 0.00949 µM
# [22] = second compound 1 µM, first compound 0.03 µM
# [23] = second compound 1 µM, first compound 0.0949 µM
# [24] = second compound 1 µM, first compound 0.3 µM
smiles,measurement,setting,value
NC(=O)C(=Cn1cnc(-c2cc(C(F)(F)F)cc(C(F)(F)F)c2)n1)c1cncnc1 + Cc1c(S(C)(=O)=O)c(-c2cc(F)cc(N3CCN(c4ccc(NS(=O)(=O)c5ccc(NC(CCN6CCC(C(=O)OCCCP(=O)(O)O)CC6)CSc6ccccc6)c(S(=O)(=O)C(F)(F)F)c5)cc4)CC3)c2)c(-c2ccc(Cl)cc2)n1C(C)C,IC50,second compound 0.0316 µM,76.6 nM
same,IC50,second compound 0.1 µM,51.6 nM
same,IC50,second compound 0.316 µM,35.1 nM
same,IC50,second compound 1 µM,39.8 nM
same,IC50,second compound 3.16 µM,27.3 nM
same,IC50,second compound 10 µM,62.6 nM
same,"viability, T/C",[1],94.4%
same,"viability, T/C",[2],88%
same,"viability, T/C",[3],89.3%
same,"viability, T/C",[4],89.7%
same,"viability, T/C",[5],40.9%
same,"viability, T/C",[6],16.8%
same,"viability, T/C",[7],87.6%
same,"viability, T/C",[8],82.8%
same,"viability, T/C",[9],81.8%
same,"viability, T/C",[10],76.4%
same,"viability, T/C",[11],20.3%
same,"viability, T/C",[12],15.7%
same,"viability, T/C",[13],90.5%
same,"viability, T/C",[14],87.4%
same,"viability, T/C",[15],70.1%
same,"viability, T/C",[16],60.9%
same,"viability, T/C",[17],19.7%
same,"viability, T/C",[18],16.4%
same,"viability, T/C",[19],89%
same,"viability, T/C",[20],75.8%
same,"viability, T/C",[21],73.8%
same,"viability, T/C",[22],61%
same,"viability, T/C",[23],13.9%
same,"viability, T/C",[24],18.8%
same,"viability, T/C","second compound 3.16 µM, first compound 0.000949 µM",70.4%
same,"viability, T/C","second compound 3.16 µM, first compound 0.003 µM",73.4%
same,"viability, T/C","second compound 3.16 µM, first compound 0.00949 µM",77%
same,"viability, T/C","second compound 3.16 µM, first compound 0.03 µM",47.9%
same,"viability, T/C","second compound 3.16 µM, first compound 0.0949 µM",22.5%
same,"viability, T/C","second compound 3.16 µM, first compound 0.3 µM",18.4%
same,"viability, T/C","second compound 10 µM, first compound 0.000949 µM",121%
same,"viability, T/C","second compound 10 µM, first compound 0.003 µM",131%
same,"viability, T/C","second compound 10 µM, first compound 0.00949 µM",102%
same,"viability, T/C","second compound 10 µM, first compound 0.03 µM",90.6%
same,"viability, T/C","second compound 10 µM, first compound 0.0949 µM",25.5%
same,"viability, T/C","second compound 10 µM, first compound 0.3 µM",16.8%
NC(=O)C(=Cn1cnc(-c2cc(C(F)(F)F)cc(C(F)(F)F)c2)n1)c1cncnc1 + CNC(C)C(=O)NC1CN(S(=O)(=O)c2cccc(S(=O)(=O)N3CCC4CCC(C(=O)NC(c5ccccc5)c5ccccc5)N4C(=O)C(NC(=O)C(C)NC)C3)c2)CCC2CCC(C(=O)NC(c3ccccc3)c3ccccc3)N2C1=O,IC50,second compound 0.00316 µM,< 0.949 nM
same,IC50,second compound 0.01 µM,< 0.949 nM
same,IC50,second compound 0.0316 µM,< 0.949 nM
same,IC50,second compound 0.1 µM,< 0.949 nM
same,IC50,second compound 0.316 µM,< 0.949 nM
same,IC50,second compound 1 µM,< 0.949 nM
same,"viability, T/C","second compound 0.00316 µM, first compound 0.000949 µM",38.3%
same,"viability, T/C","second compound 0.00316 µM, first compound 0.003 µM",35.7%
same,"viability, T/C","second compound 0.00316 µM, first compound 0.00949 µM",23.6%
same,"viability, T/C","second compound 0.00316 µM, first compound 0.03 µM",16.3%
same,"viability, T/C","second compound 0.00316 µM, first compound 0.0949 µM",15.7%
same,"viability, T/C","second compound 0.00316 µM, first compound 0.3 µM",19.8%
same,"viability, T/C","second compound 0.01 µM, first compound 0.000949 µM",17.5%
same,"viability, T/C","second compound 0.01 µM, first compound 0.003 µM",12.1%
same,"viability, T/C","second compound 0.01 µM, first compound 0.00949 µM",11.6%
same,"viability, T/C","second compound 0.01 µM, first compound 0.03 µM",14.1%
same,"viability, T/C","second compound 0.01 µM, first compound 0.0949 µM",17.8%
same,"viability, T/C","second compound 0.01 µM, first compound 0.3 µM",16.7%
same,"viability, T/C",[1],17.1%
same,"viability, T/C",[2],12.9%
same,"viability, T/C",[3],13.1%
same,"viability, T/C",[4],17%
same,"viability, T/C",[5],19%
same,"viability, T/C",[6],20.2%
same,"viability, T/C",[7],14.6%
same,"viability, T/C",[8],14.6%
same,"viability, T/C",[9],13.7%
same,"viability, T/C",[10],14.3%
same,"viability, T/C",[11],22.9%
same,"viability, T/C",[12],22.2%
same,"viability, T/C",[13],12.9%
same,"viability, T/C",[14],16%
same,"viability, T/C",[15],14.4%
same,"viability, T/C",[16],14.5%
same,"viability, T/C",[17],22.4%
same,"viability, T/C",[18],23.7%
same,"viability, T/C",[19],13.9%
same,"viability, T/C",[20],16%
same,"viability, T/C",[21],13.9%
same,"viability, T/C",[22],16.6%
same,"viability, T/C",[23],18.5%
same,"viability, T/C",[24],22.3%
